Key:
Assay type in all cases: cell-based, human
[1] = tested on: Jurkat cells; assay: anti-CD3/CD28-induced c-Rel dependent gene expression by quantitative real time PCR
Experimental: Jurkat cells were treated with PUGNAc (100 μM) for 12 hours and then treated with plate bound anti-CD3/CD28 (2 μg/ml) for 3 hours. Some cells were additionally treated overnight with Streptozotocin (STZ, 2 mM) prior to PUGNAc treatment. Gene expression was analyzed by quantitative real time PCR. In other cases, Jurkat T-REx cell clones expressing wild-type and mutant c-Rel were induced with doxycycline for 22 hrs, treated with PUGNAc overnight and then treated with anti-CD3/C28 for 3 hrs.
DNA-free RNA was prepared using the RNeasy Mini Kit according to the manufacturer's instructions (Qiagen). cDNA was synthesized from 0.5-1.0 μg total RNA using random hexamers (Promega) and Superscript III reverse transcriptase first-strand synthesis kit (Invitrogen, Carlsbad, Calif.). Quantitative real time PCR using cDNA corresponding to 20-60 ng of total RNA and Taqman Gene Expression Assays (Applied Biosystems, Foster City, Calif.) was performed in a Real-Time PCR machine (Realplex, Eppendorf) according to the manufacturer's instructions. The results obtained for individual genes were normalized to the expression of TFR for human genes and UBE2D2 for mouse genes. Quantitative real time PCR (qPCR) was performed at least in three independent experiments in triplicates and the relative levels of indicated genes were calculated with respect to the expression of transferrin receptor. Statistical significance was determined by two-tailed unpaired Student's t test and represented as mean±SEM.

[2] = tested on: c-Rel binding CD28RE region; assay: Electrophoretic mobility shift assay, anti-CD3/CD28-induced binding of nuclear extracts to CD28RE probe
Experimental: Jurkat cells were cultured at 1.5×10^6 cells/ml in 6-well plates or 10 cm plates in the presence of 1 μg/ml of Doxycycline for 22 hours for the induction of FLAG-c-Rel. Cells were stimulated for the indicated time points (3 hours) with plate bound anti-CD3 and anti-CD28 (2 μg/ml each). […] PLCγ, Lamin and SP1 were used as loading controls. Cytoplasmic and nuclear extracts were also prepared after culturing in the presence of 1 μg/ml of Doxycycline for 22 hours for the induction of FLAG-c-Rel. FLAG-c-Rel was immunoprecipitated and analyzed with anti-O-GlcNAc antibody.
Nuclear protein extracts were prepared as described^7. Nuclear extracts corresponding to 4-6 μg of protein were tested for DNA binding using the probes containing c-Rel binding CD28RE region and p65 binding IL2-κB region. OCT1 probe was used as a control. In the probe containing CD28RE-NF-IL-2B AP-1 region, the AP site was mutated as previously described to restrict the protein binding only to the CD28RE site in our assays. (Shapiro et al. Mol Cell Biol 17:4051-4058 (1997).) Lysates were incubated with [^32P] γATP labeled probe in the binding buffer (Tris-Cl 10 mM, pH 7.5, Nacl 50 mM, glycerol 4%, MgCl2 1 mM, EDTA 0.1 mM, poly(dI-dC) 50 μg/ml, and 0.1 mM DTT) for 20 min at room temperature. […] Samples were separated in 5% non-denaturing polyacrylamide gel and analyzed by autoradiography.

[3] = tested on: c-Rel; assay: c-Rel O-GlcNAcylation, immunoprecipitation and anti-O-GlcNAc western blot; conditions: Jurkat cells, 30 mM glucose, PUGNAc 100 μM for 3 hrs
[4] = tested on: Jurkat T-REx cell clones; assay: TNF-induced NF-κB-dependent gene expression by qPCR; conditions: TNF 100 ng/ml 3 hrs, PUGNAc overnight
Experimental: Cells were treated with TNF (100 ng/ml) for 3 hrs. Jurkat T-REx cell clones expressing wild-type and mutant c-Rel were induced with doxycycline for 22 hrs, treated with PUGNAc overnight and then treated with anti-CD3/C28 for 3 hrs. Quantitative real time PCR (qPCR) was performed at least in three independent experiments in triplicates and the relative levels of indicated genes were calculated with respect to the expression of transferrin receptor. Statistical significance was determined by two-tailed unpaired Student's t test and represented as mean±SEM.

[5] = tested on: c-Rel; assay: TNF-induced nuclear translocation assay, c-Rel; conditions: Jurkat cells, PUGNAc overnight then TNF
Experimental: (§1) Jurkat cells were treated overnight with PUGNAc and then with TNF. Nuclear extracts were analyzed for c-Rel and p65 nuclear translocation. p105 was used as the loading control.

[6] = tested on: p65; assay: TNF-induced nuclear translocation assay, p65; conditions: Jurkat cells, PUGNAc overnight then TNF
Experimental: as §1

[7] = Jurkat cells, PUGNAc 100 μM 12 hours, then anti-CD3/CD28 3 hours

CN(N=O)C(=O)N[C@H]1C(O)O[C@H](CO)[C@@H](O)[C@@H]1O (mixture of isomers) [Streptozotocin]
anti-CD3/CD28-induced c-Rel-dependent gene expression (GMCSF) ([1]; STZ 2 mM overnight): enhanced

[N-]=[N+]=CC(=O)CC[C@H](N)C(=O)O [DON, 6-diazo-5-oxo-L-norleucine]
anti-CD3/CD28-induced CD28RE binding of nuclear extracts ([2]; wild-type c-Rel expressing Jurkat cells, DON overnight): decreased

CC(=O)N[C@H]1/C(=N/OC(=O)Nc2ccccc2)O[C@H](CO)[C@@H](O)[C@@H]1O [PUGNAc, O-(2-acetamido-2-deoxy-D-glucopyranosylidene)amino-N-phenylcarbamate]
O-GlcNAcylation of c-Rel [3]: further enhanced the O-GlcNAcylation of c-Rel | anti-CD3/CD28-induced CD28RE DNA binding ([2]; PUGNAc and high glucose treatment): significantly increased | expression of c-Rel-dependent genes in wild-type versus mutant c-Rel cells ([1]; Jurkat T-REx clones expressing wild-type or S350A c-Rel, PUGNAc overnight, anti-CD3/CD28 3 hrs): significantly potentiated the expression of c-Rel-dependent genes only in wild-type c-Rel expressing cells | anti-CD3/CD28-induced expression of GMCSF [1, 7]: significantly potentiated | anti-CD3/CD28-induced expression of IL-2 [1, 7]: significantly potentiated | TCR-induced expression of A20 and IκBα ([1]; PUGNAc treatment): did not observe any effect | TNF-induced expression of A20 [4]: neither affected | TNF-induced expression of IκBα [4]: neither affected | TNF induced c-Rel nuclear translocation [5]: no effect | TNF-induced nuclear p65 levels [6]: decreased
